Measured values as given in publication PMC11277489, “Novel Piperazine Derivatives of Vindoline as Anticancer Agents” (International Journal of Molecular Sciences, 2024).

Key:
SF-268 = test: NCI60 one-dose screen (10 μM), CNS Cancer; assay type: cell-based; conditions: Homo sapiens; 10 μM; SF-268, CNS Cancer; read-out: Growth percent rate
RPMI-8226 = test: NCI60 one-dose screen (10 μM), Leukemia; assay type: cell-based; conditions: Homo sapiens; 10 μM; RPMI-8226, Leukemia; read-out: Growth percent rate
TK-10 = test: NCI60 one-dose screen (10 μM), Renal Cancer; assay type: cell-based; conditions: Homo sapiens; 10 μM; TK-10, Renal Cancer; read-out: Growth percent rate
SF-539 = test: NCI60 one-dose screen (10 μM), CNS Cancer; assay type: cell-based, human; conditions: Homo sapiens; 10 μM; SF-539, CNS Cancer; read-out: Growth percent rate
ACHN = test: NCI60 one-dose screen (10 μM), Renal Cancer; assay type: cell-based; conditions: Homo sapiens, 10 μM, Renal Cancer, read-out: Growth percent rate
SNB-19 = test: NCI60 one-dose screen (10 μM), CNS Cancer; assay type: cell-based; conditions: Homo sapiens; 10 μM; SNB-19, CNS Cancer; read-out: Growth percent rate
SN12C = test: NCI60 one-dose screen (10 μM), Renal Cancer; assay type: cell-based; conditions: Homo sapiens, 10 μM, Renal Cancer, read-out: Growth percent rate
HCT-15 = test: NCI60 one-dose screen (10 μM), Colon Cancer; assay type: cell-based; conditions: Homo sapiens; 10 μM; HCT-15, Colon Cancer; read-out: Growth percent rate
HT29 = test: NCI60 one-dose screen (10 μM), Colon Cancer; assay type: cell-based; conditions: Homo sapiens, HT-29; 10 μM; HT29, Colon Cancer; read-out: Growth percent rate
HL-60(TB) = test: NCI60 one-dose screen (10 μM), Leukemia; assay type: cell-based; conditions: Homo sapiens; 10 μM; HL-60(TB), Leukemia; read-out: Growth percent rate
OVCAR-4 = test: NCI60 one-dose screen (10 μM), Ovarian Cancer; assay type: cell-based; conditions: Homo sapiens; 10 μM; OVCAR-4, Ovarian Cancer; read-out: Growth percent rate
NCI-H23 = test: NCI60 one-dose screen (10 μM), Non-small Cell Lung Cancer; assay type: cell-based; conditions: Homo sapiens; 10 μM; NCI-H23, Non-small Cell Lung Cancer; read-out: Growth percent rate
CAKI-1 = test: NCI60 one-dose screen (10 μM), Renal Cancer; assay type: cell-based; conditions: Homo sapiens; 10 μM; CAKI-1, Renal Cancer; read-out: Growth percent rate
RXF 393 = test: NCI60 one-dose screen (10 μM), Renal Cancer; assay type: cell-based, human; conditions: Homo sapiens; 10 μM; RXF 393, Renal Cancer; read-out: Growth percent rate
COLO 205 = test: NCI60 one-dose screen (10 μM), Colon Cancer; assay type: cell-based, human; conditions: Homo sapiens; 10 μM; COLO 205, Colon Cancer; read-out: Growth percent rate
SK-MEL-28 = test: NCI60 one-dose screen (10 μM), Melanoma; assay type: cell-based; conditions: Homo sapiens; 10 μM; SK-MEL-28, Melanoma; read-out: Growth percent rate
MDA-MB-435 = test: NCI60 one-dose screen (10 μM), Melanoma; assay type: cell-based; conditions: Homo sapiens; 10 μM; MDA-MB-435, Melanoma; read-out: Growth percent rate
SK-MEL-2 = test: NCI60 one-dose screen (10 μM), Melanoma; assay type: cell-based; conditions: Homo sapiens; 10 μM; SK-MEL-2, Melanoma; read-out: Growth percent rate
OVCAR-8 = test: NCI60 one-dose screen (10 μM), Ovarian Cancer; assay type: cell-based; conditions: Homo sapiens; 10 μM; OVCAR-8, Ovarian Cancer; read-out: Growth percent rate
NCI-H522 = test: NCI60 one-dose screen (10 μM), Non-small Cell Lung Cancer; assay type: cell-based; conditions: Homo sapiens; 10 μM; NCI-H522, Non-small Cell Lung Cancer; read-out: Growth percent rate
HCT-116 = test: NCI60 one-dose screen (10 μM), Colon Cancer; assay type: cell-based; conditions: Homo sapiens; 10 μM; HCT-116, Colon Cancer; read-out: Growth percent rate
SW-620 = test: NCI60 one-dose screen (10 μM), Colon Cancer; assay type: cell-based; conditions: Homo sapiens; 10 μM; SW-620, Colon Cancer; read-out: Growth percent rate
NCI-H322M = test: NCI60 one-dose screen (10 μM), Non-small Cell Lung Cancer; assay type: cell-based; conditions: Homo sapiens, 10 μM, Non-small Cell Lung Cancer, read-out: Growth percent rate
KM12 = test: NCI60 one-dose screen (10 μM), Colon Cancer; assay type: cell-based, human; conditions: Homo sapiens; 10 μM; KM12, Colon Cancer; read-out: Growth percent rate
MCF7 = test: NCI60 one-dose screen (10 μM), Breast Cancer; assay type: cell-based; conditions: Homo sapiens; 10 μM; MCF7, Breast Cancer; read-out: Growth percent rate
A549/ATCC = test: NCI60 one-dose screen (10 μM), Non-small Cell Lung Cancer; assay type: cell-based; conditions: Homo sapiens; 10 μM; A549/ATCC, Non-small Cell Lung Cancer; read-out: Growth percent rate
CCRF-CEM = test: NCI60 one-dose screen (10 μM), Leukemia; assay type: cell-based; conditions: Homo sapiens, 10 μM, Leukemia, read-out: Growth percent rate
MALME-3M = test: NCI60 one-dose screen (10 μM), Melanoma; assay type: cell-based; conditions: Homo sapiens; 10 μM; MALME-3M, Melanoma; read-out: Growth percent rate
OVCAR-3 = test: NCI60 one-dose screen (10 μM), Ovarian Cancer; assay type: cell-based; conditions: Homo sapiens; 10 μM; OVCAR-3, Ovarian Cancer; read-out: Growth percent rate
786–0 = test: NCI60 one-dose screen (10 μM), Renal Cancer; assay type: cell-based; conditions: Homo sapiens; 10 μM; 786-0, Renal Cancer; read-out: Growth percent rate
UACC-257 = test: NCI60 one-dose screen (10 μM), Melanoma; assay type: cell-based; conditions: Homo sapiens; 10 μM; UACC-257, Melanoma; read-out: Growth percent rate
HCC-2998 = test: NCI60 one-dose screen (10 μM), Colon Cancer; assay type: cell-based; conditions: Homo sapiens; 10 μM; HCC-2998, Colon Cancer; read-out: Growth percent rate
K-562 = test: NCI60 one-dose screen (10 μM), Leukemia; assay type: cell-based; conditions: Homo sapiens, K562; 10 μM; K-562, Leukemia; read-out: Growth percent rate
HOP-62 = test: NCI60 one-dose screen (10 μM), Non-small Cell Lung Cancer; assay type: cell-based; conditions: Homo sapiens; 10 μM; HOP-62, Non-small Cell Lung Cancer; read-out: Growth percent rate
LOX IMVI = test: NCI60 one-dose screen (10 μM), Melanoma; assay type: cell-based, human; conditions: Homo sapiens; 10 μM; LOX IMVI, Melanoma; read-out: Growth percent rate
HS 578T = test: NCI60 one-dose screen (10 μM), Breast Cancer; assay type: cell-based; conditions: Homo sapiens; 10 μM; HS 578T, Breast Cancer; read-out: Growth percent rate
SK-MEL-5 = test: NCI60 one-dose screen (10 μM), Melanoma; assay type: cell-based, human; conditions: Homo sapiens; 10 μM; SK-MEL-5, Melanoma; read-out: Growth percent rate
EKVX = test: NCI60 one-dose screen (10 μM), Non-small Cell Lung Cancer; assay type: cell-based; conditions: Homo sapiens, 10 μM, Non-small Cell Lung Cancer, read-out: Growth percent rate
IGROV1 = test: NCI60 one-dose screen (10 μM), Ovarian Cancer; assay type: cell-based; conditions: Homo sapiens, IGROV-1; 10 μM; IGROV1, Ovarian Cancer; read-out: Growth percent rate
SF-295 = test: NCI60 one-dose screen (10 μM), CNS Cancer; assay type: cell-based; conditions: Homo sapiens; 10 μM; SF-295, CNS Cancer; read-out: Growth percent rate
MOLT-4 = test: NCI60 one-dose screen (10 μM), Leukemia; assay type: cell-based, human; conditions: Homo sapiens; 10 μM; MOLT-4, Leukemia; read-out: Growth percent rate
M14 = test: NCI60 one-dose screen (10 μM), Melanoma; assay type: cell-based; conditions: Homo sapiens; 10 μM; M14, Melanoma; read-out: Growth percent rate

Compound `CC[C@]12C=CCN3CC[C@@]4(c5ccc(OC)cc5N(C)[C@H]4[C@@](O)(C(=O)OC)[C@@H]1OC(=O)CCC(=O)N1CCN(Cc4ccc(C(F)(F)F)cc4)CC1)[C@@H]32` [Compound 29] has an activity at 10 µM (SF-268) of 14.6%, an activity at 10 µM (RPMI-8226) of -14.2% and an activity at 10 µM (TK-10) of 45.7%. The activity at 10 µM (SF-539) was 11.7%, the activity at 10 µM (ACHN) was 3.7% and the activity at 10 µM (SNB-19) was 20.1%. The activity at 10 µM (SN12C) was 14.8%, the activity at 10 µM (HCT-15) was 15% and the activity at 10 µM (HT29) was -10%. It also gave an activity at 10 µM (HL-60(TB)) of -58.2%, an activity at 10 µM (OVCAR-4) of 10.5% and an activity at 10 µM (NCI-H23) of 29.4%. It also gave an activity at 10 µM (CAKI-1) of 6.02%, an activity at 10 µM (RXF 393) of 10.2% and an activity at 10 µM (COLO 205) of -91%. The activity at 10 µM (SK-MEL-28) was 7.72%, the activity at 10 µM (MDA-MB-435) was 3.59% and the activity at 10 µM (SK-MEL-2) was -63.4%. It also gave an activity at 10 µM (OVCAR-8) of 23.4%, an activity at 10 µM (NCI-H522) of 28.2% and an activity at 10 µM (HCT-116) of 7.59%. For the same compound, the activity at 10 µM (SW-620) was 9.15%, the activity at 10 µM (NCI-H322M) was 35.4% and the activity at 10 µM (KM12) was 3.78%. The activity at 10 µM (MCF7) was 10.9%, the activity at 10 µM (A549/ATCC) was 25.3% and the activity at 10 µM (CCRF-CEM) was 3.8%. For the same compound, the activity at 10 µM (MALME-3M) was -26.5%, the activity at 10 µM (OVCAR-3) was 0.33% and the activity at 10 µM (786–0) was 11.9%. The activity at 10 µM (UACC-257) was 22.6%, the activity at 10 µM (HCC-2998) was -52.6% and the activity at 10 µM (K-562) was -12.5%. The activity at 10 µM (HOP-62) was 22%, the activity at 10 µM (LOX IMVI) was -7.07% and the activity at 10 µM (HS 578T) was 0.42%. For the same compound, the activity at 10 µM (SK-MEL-5) was -90.9%, the activity at 10 µM (EKVX) was 25.4% and the activity at 10 µM (IGROV1) was -31.2%. It also gave an activity at 10 µM (SF-295) of 7.76%, an activity at 10 µM (MOLT-4) of -4.63% and an activity at 10 µM (M14) of -20.3%.
